Reference: the supplement of paper PMC10307832

What was measured:
Assay in all cases: relative viability (nuclei count vs DMSO), 5 days (fraction); higher = more cells survive
[1] = tested on: NCI-H647
Summary of the method: (§1)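 Five library-drug doses in √10 steps were combined with a fixed anchor-drug dose, or a single drug was given alone, by pin tool to lung cancer cell lines in 1536-well plates the day after seeding. Nuclei were stained and counted after 5 days. Relative viability is the nuclei count in treated wells over that in vehicle wells, taken as the median of duplicate plates.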

[2] = tested on: LOU-NH91
Summary of the method: as §1

[3] = tested on: EPLC-272H
Summary of the method: as §1

[4] = tested on: PC-14
Summary of the method: as §1

[5] = tested on: NCI-H3122
Summary of the method: as §1

[6] = tested on: NCI-H1993
Summary of the method: as §1

[7] = tested on: NCI-H520
Summary of the method: as §1

[8] = tested on: NCI-H2347
Summary of the method: as §1

[9] = tested on: HCC-44
Summary of the method: as §1

[10] = tested on: NCI-H1563
Summary of the method: as §1

[11] = tested on: NCI-H1650
Summary of the method: as §1

[12] = tested on: H3255
Summary of the method: as §1

[13] = tested on: 201T
Summary of the method: as §1

[14] = tested on: NCI-H2023
Summary of the method: as §1

[15] = tested on: COR-L23
Summary of the method: as §1

[16] = tested on: NCI-H441
Summary of the method: as §1

[17] = tested on: NCI-H2085
Summary of the method: as §1

[18] = tested on: NCI-H2405
Summary of the method: as §1

[19] = tested on: RERF-LC-KJ
Summary of the method: as §1

[20] = tested on: NCI-H1734
Summary of the method: as §1

For `NC(=O)Nc1cc(-c2cccc(F)c2)sc1C(=O)N[C@H]1CCCNC1` [AZD7762] + CC(C)C[C@H](NC(=O)[C@H](Cc1ccccc1)NC(=O)c1cnccn1)B(O)O [Bortezomib] (partner 0.002 µM), the relative viability ([1]; first compound 0.01 µM) was 1.15, the relative viability ([1]; first compound 0.03162 µM) was 1.08 and the relative viability ([1]; first compound 0.1 µM) was 0.919. It also gave a relative viability ([1]; first compound 0.3162 µM) of 0.634, a relative viability ([1]; first compound 1 µM) of 0.0894 and a relative viability ([2]; first compound 0.01 µM) of 0.558. For the same compound, the relative viability ([2]; first compound 0.03162 µM) was 0.462, the relative viability ([2]; first compound 0.1 µM) was 0.487 and the relative viability ([2]; first compound 0.3162 µM) was 0.548. For the same compound, the relative viability ([2]; first compound 1 µM) was 0.522, the relative viability ([3]; first compound 0.01 µM) was 0.81 and the relative viability ([3]; first compound 0.03162 µM) was 1.01. It also gave a relative viability ([3]; first compound 0.1 µM) of 1.02, a relative viability ([3]; first compound 0.3162 µM) of 0.828 and a relative viability ([3]; first compound 1 µM) of 0.992. It also gave a relative viability ([4]; first compound 0.01 µM) of 0.848, a relative viability ([4]; first compound 0.03162 µM) of 0.925 and a relative viability ([4]; first compound 0.1 µM) of 0.932. It also gave a relative viability ([4]; first compound 0.3162 µM) of 0.662, a relative viability ([4]; first compound 1 µM) of 0.357 and a relative viability ([5]; first compound 0.01 µM) of 1.04. It also gave a relative viability ([5]; first compound 0.03162 µM) of 1.01, a relative viability ([5]; first compound 0.1 µM) of 1.05 and a relative viability ([5]; first compound 0.3162 µM) of 0.966. The relative viability ([5]; first compound 1 µM) was 1.09, the relative viability ([6]; first compound 0.01 µM) was 1.2 and the relative viability ([6]; first compound 0.03162 µM) was 1.08. The relative viability ([6]; first compound 0.1 µM) was 1.07, the relative viability ([6]; first compound 0.3162 µM) was 1.36 and the relative viability ([6]; first compound 1 µM) was 0.841. For the same compound, the relative viability ([7]; first compound 0.01 µM) was 0.471, the relative viability ([7]; first compound 0.03162 µM) was 0.659 and the relative viability ([7]; first compound 0.1 µM) was 0.525. It also gave a relative viability ([7]; first compound 0.3162 µM) of 0.27, a relative viability ([7]; first compound 1 µM) of 0.289 and a relative viability ([8]; first compound 0.01 µM) of 1.1. The relative viability ([8]; first compound 0.03162 µM) was 0.967, the relative viability ([8]; first compound 0.1 µM) was 0.863 and the relative viability ([8]; first compound 0.3162 µM) was 1.17. The relative viability ([8]; first compound 1 µM) was 0.685, the relative viability ([9]; first compound 0.01 µM) was 0.797 and the relative viability ([9]; first compound 0.03162 µM) was 0.804. For the same compound, the relative viability ([9]; first compound 0.1 µM) was 0.919, the relative viability ([9]; first compound 0.3162 µM) was 0.705 and the relative viability ([9]; first compound 1 µM) was 0.862. It also gave a relative viability ([10]; first compound 0.01 µM) of 0.843, a relative viability ([10]; first compound 0.03162 µM) of 0.963 and a relative viability ([10]; first compound 0.1 µM) of 1.05. The relative viability ([10]; first compound 0.3162 µM) was 0.976, the relative viability ([10]; first compound 1 µM) was 0.746 and the relative viability ([11]; first compound 0.01 µM) was 0.217. For the same compound, the relative viability ([11]; first compound 0.03162 µM) was 0.205, the relative viability ([11]; first compound 0.1 µM) was 0.211 and the relative viability ([11]; first compound 0.3162 µM) was 0.203. For the same compound, the relative viability ([11]; first compound 1 µM) was 0.204, the relative viability ([12]; first compound 0.01 µM) was 0.818 and the relative viability ([12]; first compound 0.03162 µM) was 0.852. For the same compound, the relative viability ([12]; first compound 0.1 µM) was 0.734, the relative viability ([12]; first compound 0.3162 µM) was 0.609 and the relative viability ([12]; first compound 1 µM) was 0.59. It also gave a relative viability ([13]; first compound 0.01 µM) of 1.09, a relative viability ([13]; first compound 0.03162 µM) of 1.12 and a relative viability ([13]; first compound 0.1 µM) of 1.12. The relative viability ([13]; first compound 0.3162 µM) was 1.12, the relative viability ([13]; first compound 1 µM) was 1.19 and the relative viability ([14]; first compound 0.01 µM) was 0.82. It also gave a relative viability ([14]; first compound 0.03162 µM) of 0.904, a relative viability ([14]; first compound 0.1 µM) of 0.465 and a relative viability ([14]; first compound 0.3162 µM) of 0.283. For the same compound, the relative viability ([14]; first compound 1 µM) was 0.104, the relative viability ([15]; first compound 0.01 µM) was 1.12 and the relative viability ([15]; first compound 0.03162 µM) was 0.981. It also gave a relative viability ([15]; first compound 0.1 µM) of 0.985, a relative viability ([15]; first compound 0.3162 µM) of 0.905 and a relative viability ([15]; first compound 1 µM) of 0.229. It also gave a relative viability ([16]; first compound 0.01 µM) of 1.13, a relative viability ([16]; first compound 0.03162 µM) of 0.972 and a relative viability ([16]; first compound 0.1 µM) of 0.313. For the same compound, the relative viability ([16]; first compound 0.3162 µM) was 0.456, the relative viability ([16]; first compound 1 µM) was 0.548 and the relative viability ([17]; first compound 0.01 µM) was 1.11. It also gave a relative viability ([17]; first compound 0.03162 µM) of 1.14, a relative viability ([17]; first compound 0.1 µM) of 1.11 and a relative viability ([17]; first compound 0.3162 µM) of 1.14. For the same compound, the relative viability ([17]; first compound 1 µM) was 0.887, the relative viability ([18]; first compound 0.01 µM) was 0.933 and the relative viability ([18]; first compound 0.03162 µM) was 0.982. It also gave a relative viability ([18]; first compound 0.1 µM) of 0.963, a relative viability ([18]; first compound 0.3162 µM) of 0.943 and a relative viability ([18]; first compound 1 µM) of 0.796. It also gave a relative viability ([19]; first compound 0.01 µM) of 1.16, a relative viability ([19]; first compound 0.03162 µM) of 1.11 and a relative viability ([19]; first compound 0.1 µM) of 1.11. It also gave a relative viability ([19]; first compound 0.3162 µM) of 1.11, a relative viability ([19]; first compound 1 µM) of 1.14 and a relative viability ([20]; first compound 0.01 µM) of 0.912. For the same compound, the relative viability ([20]; first compound 0.03162 µM) was 1.04, the relative viability ([20]; first compound 0.1 µM) was 0.963 and the relative viability ([20]; first compound 0.3162 µM) was 0.821. The relative viability ([20]; first compound 1 µM) was 0.527.
